Test results: paper PMC10831786 (Virus Research, 2024)

Key:
[1] = target: protein synthesis in rabbit reticulocyte lysate; assay: Inhibition of protein synthesis in rabbit reticulocyte lysates (luciferase mRNA translation); format: biochemical
Protocol: The TnT® Quick Coupled Transcription/Translation System from Promega (WI, USA; L1170) was used to evaluate inhibitory effects of ipecac alkaloids and cycloheximide on protein synthesis. Assay conditions were employed as recommended by the manufacturer. Briefly, reactions (20 μl) contained 80 % TNT Quick master mix, 20 µM methionine, 40 ng/µL luciferase RNA (Promega; L4561), and test chemicals. Samples were incubated at 30 °C for 90 min and diluted 10-fold with PBS. An aliquot (2 μl) was mixed with 20 μl of luciferase assay reagent (Promega; E1500) and luminescence was measured with a Turner Designs luminometer (model TD-20/20).

[2] = tested on: protein synthesis in Vero E6 cells; assay: Puromycin pulse labeling, protein synthesis in cultured Vero E6 cells; format: cell-based, African green monkey
Protocol: Vero E6 cells were seeded at 30,000 cells per cm^2 in 6-well plates. […] Control experiments were conducted in medium alone and medium containing cycloheximide or DMSO. After 12 min, cells were washed with 37° PBS and then allowed to recover in drug-free 2 % FBS-EMEM for 30 min. Cell pellets, collected by trypsinization and centrifugation for 5 min at 5 000 rpm at 4 °C, were re-suspended in ice-cold PBS and centrifugation was repeated. Collected cells were stored at −80 °C.
Antibodies used were anti-puromycin monoclonal (TFS; MABE34), goat anti-mouse-HRP (TFS, Invitrogen; G21040), rabbit anti-β-actin (Cell Signaling, 4967S, lot 9) and HRP-conjugated goat-anti-rabbit (Cell Signaling, 7074S, lot 27). Protein extract and immunoblotting methods were done by standard methods reported here as Supplementary Information.
Vero E6 cells were seeded at 30,000 cells per cm^2 in 6-well plates. […] Puromycin labelling protocols have been well established by other laboratories and a general review of the methods has been published^79. Control experiments were conducted in medium alone and medium containing cycloheximide or DMSO. Following incubation with puromycin for 12 min, the medium was quickly removed and cells were washed with warm PBS and then allowed to recover in drug-free 2% FBS-EMEM for 30 min. Cell pellets, collected by trypsinization and centrifugation for 5 min at 5 000 rpm at 4°C, were re-suspended in ice-cold PBS and the centrifugation was repeated. Collected cells were stored at -80°C until subjected to the protein preparation as noted below.
Defrosted cell pellets were re-suspended in 120 µl of RIPA (radio-immunoprecipitation) buffer (Sigma; R0278) containing 7 µl of protease inhibitors (Sigma; P8340). Samples were incubated on ice for 40 min with occasional gentle mixing. Cell debris was removed by a 20 min centrifugation at 16,000 g at 4°C and supernatants were stored at -80°C. Protein was measured by the Pierce^TM bicinchoninic acid (BCA) assay (Thermo Fisher Scientific [TFS], MA, USA; 23250), using bovine serum albumin as a standard, according to protocols recommended by the manufacturer.
For immunoblotting, 10 µg of protein was combined with Laemmli buffer containing 10% β-mercaptoethanol, heated at 95°C for 5 min and loaded on 4-20% Mini-PROTEAN® TGX™ precast protein gels. Samples were resolved by electrophoresis in Tris-Gly-SDS buffer and transferred to nitrocellulose membranes. Transfer was conducted in Tris-Gly buffer containing 20% methanol at 4-6 V/cm^2 for one hour. Membranes were blocked in 10 mM sodium phosphate buffer containing 150 mM NaCl (pH 7.8), 5% milk and 0.1% TWEEN20 (PBST) at room temperature for at least one hour, and then incubated overnight with primary anti-puromycin antibodies (TFS; MABE343 mouse monoclonal antibodies clone 12D10; 1:12,500) at 4°C. Membranes were washed for five minutes three times in PBST and incubated with secondary goat anti-mouse horseradish peroxidase (HRP) -conjugated antibodies (TFS, Invitrogen; G21040; 1:25,000) for 90 min. After three more rounds of washing as above, membranes were incubated with an HRP substrate (TFS; 34077) for one minute and chemoluminescence was visualized by exposing membranes to film for 1, 2, 5, 10 and 30 min.
For β-actin staining, the same membranes used for puromycin immunostaining were washed four times, 5 min each, in 20 mM Tris-buffered saline containing 500 mM sodium chloride (pH 7.5) and 0.1% TWEEN20 (TBST) and stripped by two rounds of 20 and 10 min washes at 50°C in glycine buffer (pH 2.2) containing 0.1 % SDS (W/V) and 1% TWEEN20. Membranes were then washed at room temperature with PBS (3x10 min) and PBST (2x5min). Blocking, primary (1:4,000) and secondary (1:5,000) antibody staining was conducted as above. Primary rabbit anti-β-actin antibodies were obtained from Cell Signaling (4967S, lot 9) and secondary HRP-conjugated goat-anti-rabbit antibodies were from the same company (7074S, lot 27). […]

[3] = tested on: HCoV-OC43; assay: Antiviral activity against HCoV-OC43 in Vero E6 cells (RT-qPCR of N-gene); format: cell-based
Protocol: Vero E6 cells (∼5 × 10^4 cells/cm^2 in 24-well plates) were infected with […] at MOI of 20 genomes per cell in 2 % FBS-EMEM at 33 °C, 5 % CO2 with gently mixing for 2 h. Infection medium was removed, cells were washed with fresh medium followed by the addition of compounds at indicated concentrations in 2 % FBS-EMEM. After 72 h, 100 µL of medium was collected and stored at −80 °C for viral RNA isolation and RT-qPCR analysis as detailed below. Drugs were added to the medium prior to and after viral absorption for comparison.
HCoV-OC43 RNA was isolated from 100 µL of medium using Quick-RNA Viral Kit-DX (Zymo Research, CA, USA; R1035). The relative amount of viral genomic RNA was determined with Luna Universal One-Step RT-qPCR Kit (New England Biolabs, MA, USA; E3005). […]
RT-qPCR cycles were set for 20 min at 55 °C, 1 min at 95 °C followed by 45 cycles of 95 °C for 10 s, 48 °C for 30 s and 60 °C for 1 min. The threshold cycle (Ct) for each sample was determined using the Opticon Monitor 3 Program (BioRad). Drug effects on viral propagation were evaluated assuming that a difference of one cycle corresponds to a two-fold difference in the number of copies of viral RNA. Ct values obtained for drug-free samples were considered as 100 % viral propagation.

[4] = MTS assay, growth inhibition and toxicity in non-infected Vero E6 cells; format: cell-based, African green monkey; settings: African green monkey, non-infected Vero E6 cells, MTS, 72 h; read-out: Fifty percent effect (CC50) in non-infected Vero E6
Protocol: Detailed methods are provided in Supplementary Information.
Vero E6 and BEC-hACE2 cells were grown to 70-80% density in their maintenance media and exposed to various concentrations of ipecac alkaloids (0.0125 – 200 µM) under standard culture conditions for 48-72 h and 24 h, respectively. Controls with varying amounts of DMSO and no DMSO were included also. Vero E6 cells were incubated with drugs in 2% FBS-EMEM, while BEC-HACE2 cells were grown and treated in complete PCS-300-03 medium with supplements. Similar treatments were also conducted using fully confluent non-growing BEC-hACE2 cells. At the end of the exposure period, MTS reagent (Promega G3580) was added at 1/5th of the medium volume and color was allowed to develop by incubation of the plates for an hour in a cell culture incubator. To stop reactions, SDS was added to a final concentration of 2% and optical density of samples was measured at 450 or 490 nm, depending on the model of spectrophotometer (PharmaciaBiotech, NJ, USA; UV spectrophotometer, model Ultrospec2000) or plate reader (Molecular Devices, CA, USA; model Filter Max F5 Multi-mode microplate reader) available at the time of experiment.

| Compound | IC50 ([1]; luciferase mRNA, 30 °C, 90 min) [nM] | IC50 ([2]; Chlorocebus sabaeus, Vero C1008, Vero E6 cells, 1 h exposure, puromycin labeling, read-out: 50 % inhibitory activities, protein synthesis) [nM] | Inhibitory effects on translation in rabbit reticulocyte lysate ([1]; concentration range 0.1 - 100 μM) | IC50, protein synthesis inhibition in rabbit reticulocyte lysate ([1]; luciferase mRNA, 30 °C, 90 min) | IC50 ([3]; Betacoronavirus 1, OC43, Vero C1008, Vero E6, drug added after viral absorption, 72 hpi, read-out: Antiviral IC50) [nM] | Selectivity index, (SI) CC50/IC50 ([3]; HCoV-OC43, Vero E6, 72 hpi) | CC50 at 72 h [4] [nM] | Protein synthesis,% ([2]; Vero E6, 0.1 μM) [%] | Protein synthesis, puromycilation signal ([2]; Vero E6, >1 μM) | Concentration above which inhibition of puromycilation is not sustained ([2]; Vero E6 cells) [µM] | Efficiency as protein synthesis inhibitors ([2]; cultured cells, puromycin labeling) |
| --- | --- | --- | --- | --- | --- | --- | --- | --- | --- | --- | --- |
| C[C@@H]1C[C@@H]([C@H](O)CC2CC(=O)NC(=O)C2)C(=O)[C@@H](C)C1 [CHX, Cycloheximide, reference compound] | 31 | ~30 |  |  |  |  |  |  |  |  |  |
| CCC1=C(C[C@@H]2NCCc3cc(OC)c(OC)cc32)C[C@@H]2c3cc(OC)c(OC)cc3CCN2C1 [DHE1, 4H-Benzo[a]quinolizine, 3-ethyl-1,6,7,11b-tetrahydro-9,10-dimethoxy-2-[[(1S)-1,2,3,4-tetrahydro-6,7-dimethoxy-1-isoquinolinyl]methyl]-, (11bR)-] |  |  | no inhibitory effects | Not active | 1030 ± 446 | 188 | 193000 ± 63600 | 0 | signal increase | > 1 | inefficient as protein synthesis inhibitors |
